Legend:
CFTR-Y122X = CFTR-Y122X assay (dual reporter isogenic Hek293 cell lines, Renilla luminescence readthrough); assay type: cell-based; details: Homo sapiens, HEK293, 24 h, nonsense mutation suppression, 24 h incubation, tested up to 100 μM; for Emax: 100% = 14 mM paromomycin, read-out: Amax
From the text: Activity of compounds of the present invention was examined in recombinant, dual reporter isogenic Hek293 cell lines (“CFTR-Y122X assay”). The engineered reporter constructs contained the 18 bp sequence stretch corresponding to a common Y122X PTC mutation in CFTR class I mutant patients (see Sermet-Gaudelus, BMC Medicine, 2007, 5(5)). Instead of a tyrosine (Y) in position 122 of the CFTR protein a TGA stop codon interrupts the open reading frame (Y122X) of the corresponding mRNA. This TGA stop codon triplet (followed by the pyrimidine base cytosine) is permissive to aminoglycoside mediated translational readthrough which served as positive control for high throughput screening. A corresponding TAA stop codon variant and a wildtype non mutated construct was used for confirmation and counter screening. The CFTR sequence was sandwiched between an eGFP reporter, and a triple myc tag sequence fused to a full length Renilla reporter. All sequences, including an intron containing one positioned pre-eGFP (b-globin intron) were cloned in frame. The corresponding expression constructs were stably expressed in the isogenic HEK-R4 cell host (Invitrogen Incorp.) and selected by blasticidin resistance. The isogenic integration of the construct minimizes gene dose effects and improves assay reproducibility. Stably integrated single cell derived clones were selected and characterized for aminoglycoside mediated readthrough. […] Readthrough of Y122X accumulates an intracellular localized fusion protein approximately 65.5 kDa in size as controlled by western blot analysis and immunofluorescence using an anti-renilla antibody. The eGFP reporter pre-PTC mutation serves as visual control for genetic stability of the screening clones and minimizes protein degradation of small fusion protein amounts. In the assay, compound concentration was 10 μM. In miniaturized 1536 well format 2000 cells were dispensed in 4 μl/well and incubated for 24 h at 37° C., 5% CO2. 40 nl compounds were placed on the cells with control wells containing 1 ul Paramomycin and 14.4 mM final concentration. Compounds were incubated for 24 h. Renilla Glo substrate (2.5 ul) was added and plates were centrifuged and processed for luminescence measurement using various readers. Activity calculation was done using the equation: A1(%)=100*(S−NC)/(AC−NC) where AC, NC and S correspond to active controls (injection of Stimulation buffer=100% stimulation), neutral controls (buffer injection which Iloprost EC10) and screening samples (S). NC corresponds to 0% activity whereas AC is 100% activity (14 mM paromomycin). False positive artifacts were removed in confirmation and validation screening using the same assay format followed by counterscreening using the respective wildtype construct (w/o PTC mutation) cell model. Compounds were tested up to 100 μM compound concentration.

[1] = tested on: alpha-L-Iduronidase W402X in Hurler patient derived fibroblast cells; assay: Hurler patient derived fibroblast cell cultures, restored alpha-L-iduronidase activity (W402X readthrough); assay type: cell-based, human; details: Homo sapiens, Fibroblast, 192 h, 8 days incubation, highest concentration 20 uM; for Emax: 14 mM paromomycin = 100% control, read-out: Amax; for AC50: 8 point dilutions
From the text: Activity of compounds of the present invention was examined in patient derived fibroblast cells. The genotyped cells were derived from the Coriell Institute (# GM00798) and contain an in frame homozygous TGG to TAG change at nucleotide 1293 of exon 9 which results in a W402X mutation. The W402X mutation is one of the most common Hurler syndromes causing loss of function mutation. Between 60-70% of genotyped patients contain either the Q70X and/or the W402X in mutation and are classified as severe MPSI patients. This TAG stop codon triplet is permissive to aminoglycoside mediated translational readthrough which served as activity control for compound testing. Readthrough of W402X restores alpha-L-Iduronidase activity which results in removal of lysosomal accumulated Glycosaminoglycan's. Iduronidase expression could neither be detected by Taqman PCR© nor by enzyme activity or ELISA methods without compound stimulation. Compounds were tested in concentration response mode. Therefore 5000 patient cells/40 ul/well in 384 well plates were used. Compound dilutions were derived from freshly prepared 10 mM compound stock solutions. Highest concentration was 20 uM and subsequently diluted 1: 3.16 (8 point dilutions, n=4). Final DMSO concentration was below 0.5% and tested to be without effect on cell viability, growth and readthrough. Cells were incubated for 8 days with one cell media and compound exchange at day 3. Thereafter cell media was removed and cells were lysed (0.4 M Sodiumformate, 0.1% NaN3, 0.9% NaCl, 0.2% Triton, pH 3.5). Restored alpha-L-iduronidase activity in cell lysates was measured with the fluorescent 4-MU iduronide substrate (5 ul of 0.4 mM 4 Methylumbelliferyl alpha-L-iduronide/well) after 48 h incubation. Paromomycin was used as reference control (14 mM=100% control).

| SMILES | Emax (CFTR-Y122X) [%] | AC50 (CFTR-Y122X) [µM] | Emax [1] [%] | AC50 [1] [µM] |
| --- | --- | --- | --- | --- |
| Cn1c2cc(Cl)sc2c(=O)c2c(=O)n(-c3ccccc3)c(C3CCC3)nc21 [Example 2.17, 7-chloro-2-cyclobutyl-9-methyl-3-phenylthieno[2′,3′:5,6]pyrido[2,3-d]pyrimidine-4,5(3H,9H)-dione] | 151 | 4 | 128 | 10 |
| Cn1c2nc(C3CCC3)n(-c3ccccc3)c(=O)c2c(=O)c2cc(Cl)sc21 [Example 2.18, 7-chloro-2-cyclobutyl-9-methyl-3-phenylthieno[3′,2′:5,6]pyrido[2,3-d]pyrimidine-4,5(3H,9H)-dione] | 154 | 3.3 | 200 | 11 |
| CC(C)c1nc2c(c(=O)c3cc(Cl)sc3n2C)c(=O)n1-c1ccccc1 [Example 2.19] | 104 | 15 | 16 | – |
| CC(C)c1nc2c(c(=O)c3sc(Cl)cc3n2C)c(=O)n1-c1ccccc1 [Example 2.20, 7-chloro-2-isopropyl-9-methyl-3-phenylthieno[2′,3′:5,6]pyrido[2,3-d]pyrimidine-4,5(3H,9H)-dione] | 70 | 19 | 7 | – |
| Cc1csc2c(=O)c3c(=O)n(-c4ccccc4)c(C(C)C)nc3[nH]c12 [Example 2.21, 2-isopropyl-8-methyl-3-phenylthieno[2′,3′:5,6]pyrido[2,3-d]pyrimidine-4,5(3H,9H)-dione] | 180 | 14 | 25 | – |
| Cc1csc2c(=O)c3c(=O)n(-c4ccccc4)c(C(C)C)nc3n(C)c12 [Example 2.22, 2-isopropyl-8,9-dimethyl-3-phenylthieno[2′3′:5,6]pyrido[2,3-d]pyrimidine-4,5(3H,9H)-dione] | 166 | 16 | 8 | – |
| CC(C)c1nc2[nH]c3c(c(=O)c2c(=O)n1-c1ccccc1)CCCCC3 [Example 3.1, 2-isopropyl-3-phenyl-7,8,9,10-tetrahydro-3H-cyclohepta[5,6]pyrido[2,3-d]pyrimidine-4,5(6H,11H)-dione] | 190 | 13 | 9 | 1.4 |
| CC(C)c1nc2c(c(=O)c3c(n2C)CCCCC3)c(=O)n1-c1ccccc1 [Example 3.2, 2-isopropyl-11-methyl-3-phenyl-7,8,9,10-tetrahydro-3H-cyclohepta[5,6]pyrido[2,3-d]pyrimidine-4,5(6H,11H)-dione] | 213 | 11 | 83 | 12 |
| CC(C)c1nc2[nH]c3c(c(=O)c2c(=O)n1-c1ccccc1)CCC3 [Example 3.3, 2-isopropyl-3-phenyl-7,8-dihydro-3H-cyclopenta[5,6]pyrido[2,3-d]pyrimidine-4,5(6H,9H)-dione] | 112 | 21 | 8 | – |
| CC(C)c1nc2c(c(=O)c3c(n2C)CCC3)c(=O)n1-c1ccccc1 [Example 3.4, 2-isopropyl-9-methyl-3-phenyl-7,8-dihydro-3H-cyclopenta[5,6]pyrido[2,3-d]pyrimidine-4,5(6H,9H)-dione] | 40 | 18 | 8 | 1.4 |
| Cc1[nH]c2nc(C(C)C)n(-c3ccccc3)c(=O)c2c(=O)c1C [Example 3.5, 2-isopropyl-6,7-dimethyl-3-phenylpyrido[2,3-d]pyrimidine-4,5(3H,8H)-dione] | 114 | 17 | 9 | – |
| CC1CCc2c([nH]c3nc(C(C)C)n(-c4ccccc4)c(=O)c3c2=O)C1 (stereo not shown) [Example 3.6, 2-isopropyl-8-methyl-3-phenyl-6,7,8,9-tetrahydropyrimido[4,5-b]quinoline-4,5(3H,10H)-dione] | 46 | 27 | 10 | – |
| Cc1c(C)n(C)c2nc(C(C)C)n(-c3ccccc3)c(=O)c2c1=O [Example 3.7, 2-isopropyl-6,7,8-trimethyl-3-phenylpyrido[2,3-d]pyrimidine-4,5(3H,8H)-dione] | 61 | 22 | 14 | – |
| CC1CCc2[nH]c3nc(C(C)C)n(-c4ccccc4)c(=O)c3c(=O)c2C1 (stereo not shown) [Example 3.8, 2-isopropyl-7-methyl-3-phenyl-6,7,8,9-tetrahydropyrimido[4,5-b]quinoline-4,5(3H,10H)-dione] | 219 | 12 | 12 | 1.3 |
| CC1CCc2c(n(C)c3nc(C(C)C)n(-c4ccccc4)c(=O)c3c2=O)C1 (stereo not shown) [Example 3.9, 2-isopropyl-8,10-dimethyl-3-phenyl-6,7,8,9-tetrahydropyrimido[4,5-b]quinoline-4,5(3H,10H)-dione] | 11 | 11 | 15 | – |
| CC1CCc2c(c(=O)c3c(=O)n(-c4ccccc4)c(C(C)C)nc3n2C)C1 (stereo not shown) [Example 3.10, 2-isopropyl-7,10-dimethyl-3-phenyl-6,7,8,9-tetrahydropyrimido[4,5-b]quinoline-4,5(3H,10H)-dione] | 237 | 12 | 6 | – |
| CC(C)c1nc2c(c(=O)c3c(n2C)CCCC3)c(=O)n1-c1ccccc1 [Example 3.11, 2-isopropyl-10-methyl-3-phenyl-6,7,8,9-tetrahydropyrimido[4,5-b]quinoline-4,5(3H,10H)-dione] | 137 | 22 | 17 | – |
| Cc1[nH]c2nc(C3CCC3)n(-c3ccccc3)c(=O)c2c(=O)c1C [Example 3.12, 2-cyclobutyl-6,7-dimethyl-3-phenylpyrido[2,3-d]pyrimidine-4,5(3H,8H)-dione] | 505 | 4.9 | 183 | 12 |
| Cc1c(C)n(C)c2nc(C3CCC3)n(-c3ccccc3)c(=O)c2c1=O [Example 3.13, 2-cyclobutyl-6,7,8-trimethyl-3-phenylpyrido[2,3-d]pyrimidine-4,5(3H,8H)-dione] | 297 | 9.2 | 34 | – |
